Measured values reported in ChEMBL document CHEMBL1146802, “Glyco-optimization of aminoglycosides: new aminoglycosides as novel anti-infective agents” (2004).
In brackets after ≈: the same amount, converted by molar mass.

Tests used:
Format in all cases: functional
Staphylococcus aureus [1] = assay: In vitro inhibitory activity against Staphylococcus aureus ATCC 29213
Escherichia coli [2] = assay: In vitro inhibitory activity against Escherichia coli ATCC 25922
Staphylococcus aureus [3] = assay: In vitro inhibitory activity against Staphylococcus aureus MRSA 33591
Pseudomonas aeruginosa [4] = assay: In vitro inhibitory activity against Pseudomonas aeruginosa ATCC 27853
Enterococcus faecalis [5] = assay: In vitro inhibitory activity against Enterococcus faecalis ATCC 29212
Pseudomonas aeruginosa [6] = assay: In vitro inhibitory activity against Pseudomonas aeruginosa ATCC 35151
Pseudomonas aeruginosa [7] = assay: In vitro inhibitory activity against Pseudomonas aeruginosa PAO-1
Enterococcus faecalis [8] = assay: In vitro inhibitory activity against Enterococcus faecalis ATCC 29212; Value ranges from 8-32 ug/mL
Escherichia coli [9] = assay: In vitro inhibitory activity against Escherichia coli ATCC 25922; Value ranges from 0.25-1 ug/mL
[10] = Staphylococcus aureus, ATCC 29213, read-out: MIC
[11] = Escherichia coli, ATCC 25922, read-out: MIC
[12] = Pseudomonas aeruginosa, ATCC 27853, read-out: MIC
[13] = Enterococcus faecalis, ATCC 29212, read-out: MIC
[14] = Pseudomonas aeruginosa, ATCC 35151, read-out: MIC
[15] = Pseudomonas aeruginosa, read-out: MIC

Structure (SMILES) | MIC (Staphylococcus aureus [1]; [10]) [µg/mL] | MIC (Escherichia coli [2]; [11]) [µg/mL] | MIC (Staphylococcus aureus [3]) [µg/mL] | MIC (Pseudomonas aeruginosa [4]; [12]) [µg/mL] | MIC (Enterococcus faecalis [5]; [13]) [µg/mL] | MIC (Pseudomonas aeruginosa [6]; [14]) [µg/mL] | MIC (Pseudomonas aeruginosa [7]; [15]) [µg/mL] | MIC (Staphylococcus aureus [1]) [µg/mL] | MIC (Escherichia coli [2]) [µg/mL] | MIC (Pseudomonas aeruginosa [4]) [µg/mL] | MIC (Enterococcus faecalis [5]) [µg/mL] | MIC (Pseudomonas aeruginosa [6]) [µg/mL] | MIC (Pseudomonas aeruginosa [7]) [µg/mL] | MIC (Enterococcus faecalis [8]) [µg/mL] | MIC (Escherichia coli [9]) [µg/mL]
CC1CC(N(C)C)C(O)C(OC2C(N)CC(N)C(OC3OC(CN)C(O)CC3N)C2O)O1 (centres undefined) | 32 (≈ 69 µM) | 16 (≈ 34.5 µM) | > 64 | > 64 | > 64 | 32 (≈ 69 µM) | 64 (≈ 138 µM) |  |  |  |  |  |  |  | 
NCC1OC(OC2C(N)CC(N)C(OC3OC(CO)C(O)C(N)C3N)C2O)C(N)CC1O (stereo in doubt; form 1) |  |  |  |  |  | 1 (≈ 2.14 µM) | 1 (≈ 2.14 µM) | 1 (≈ 2.14 µM) |  | 2 (≈ 4.29 µM) | 32 (≈ 68.6 µM) |  |  |  | 
NCC1OC(OC2C(N)CC(N)C(OC3OC(CO)C(N)C(O)C3N)C2O)C(N)CC1O (stereo in doubt; form 1) |  |  |  |  |  |  |  | 8 (≈ 17.1 µM) | 32 (≈ 68.6 µM) | 32 (≈ 68.6 µM) | >64 | 16 (≈ 34.3 µM) | 16 (≈ 34.3 µM) |  | 
NCC1OC(OC2C(N)CC(N)C(OC3OC(CO)C(N)C(N)C3O)C2O)C(N)CC1O (stereo in doubt; form 1) |  |  | > 64 |  | > 64 |  |  | 32 (≈ 68.6 µM) |  | >64 |  | >64 | >64 |  | 
NCC1OC(OC2C(N)CC(N)C(OC3OC(CO)C(O)C(N)C3N)C2O)C(N)CC1O (stereo in doubt; form 2) |  | > 64 | > 64 |  | > 64 |  |  | 64 (≈ 137 µM) |  | >64 |  |  |  |  | 
NCC1OC(OC2C(N)CC(N)C(OC3OC(CO)C(N)C(O)C3N)C2O)C(N)CC1O (stereo in doubt; form 2) |  |  | > 64 |  | 32 (≈ 68.6 µM) |  |  | 1 (≈ 2.14 µM) | 2 (≈ 4.29 µM) | 2 (≈ 4.29 µM) |  | 1 (≈ 2.14 µM) | 1 (≈ 2.14 µM) |  | 
NC[C@H]1O[C@H](O[C@H]2[C@H](O)[C@@H](O[C@H]3O[C@H](CO)[C@@H](O)[C@H](N)[C@H]3O)[C@H](N)C[C@@H]2N)[C@H](N)C[C@@H]1O [TOBRAMYCIN] | 0.5 (≈ 1.07 µM) |  | > 64 | 0.5 (≈ 1.07 µM) |  | 0.5 (≈ 1.07 µM) | 0.5 (≈ 1.07 µM) |  |  |  |  |  |  | > 32 | > 1

The next lines start with results.

MIC (Staphylococcus aureus [1]; [10]) [µg/mL] | MIC (Escherichia coli [2]; [11]) [µg/mL] | MIC (Staphylococcus aureus [3]) [µg/mL] | MIC (Pseudomonas aeruginosa [4]; [12]) [µg/mL] | MIC (Enterococcus faecalis [5]; [13]) [µg/mL] | MIC (Pseudomonas aeruginosa [6]; [14]) [µg/mL] | MIC (Pseudomonas aeruginosa [7]; [15]) [µg/mL] | MIC (Staphylococcus aureus [1]) [µg/mL] | MIC (Escherichia coli [2]) [µg/mL] | MIC (Pseudomonas aeruginosa [4]) [µg/mL] | MIC (Enterococcus faecalis [5]) [µg/mL] | MIC (Pseudomonas aeruginosa [6]) [µg/mL] | MIC (Pseudomonas aeruginosa [7]) [µg/mL] | Structure (SMILES) | MIC (Enterococcus faecalis [8]) [µg/mL] | MIC (Escherichia coli [9]) [µg/mL]
> 64 | > 64 | > 64 | > 64 | > 64 |  |  |  |  |  |  |  |  | CC1OC(OC2C(N)CC(N)C(OC3OC(CN)C(O)CC3N)C2O)C(N)C(O)C1O (centres undefined) |  | 
> 64 | > 64 | > 64 | > 64 | > 64 | > 64 | > 64 |  |  |  |  |  |  | NCC1OC(OC2C(N)CC(N)C(OC3OCC(O)C(O)C3O)C2O)C(N)CC1O (centres undefined) |  | 
32 (≈ 68.3 µM) | 32 (≈ 68.3 µM) | > 64 | 16 (≈ 34.2 µM) | > 64 | 16 (≈ 34.2 µM) | 8 (≈ 17.1 µM) |  |  |  |  |  |  | NC[C@@H]1O[C@H](O[C@H]2[C@H](O)[C@H](O[C@H]3O[C@@H](CO)[C@@H](O)[C@H](O)[C@@H]3O)[C@H](N)C[C@H]2N)[C@@H](N)C[C@@H]1O |  | 
8 (≈ 17.1 µM) | 32 (≈ 68.6 µM) | > 64 | 16 (≈ 34.3 µM) | > 64 | 16 (≈ 34.3 µM) | 8 (≈ 17.1 µM) |  |  |  |  |  |  | NCC1OC(OC2C(N)CC(N)C(OC3OC(CN)C(O)C(O)C3N)C2O)C(N)CC1O (centres undefined) |  | 
16 (≈ 36.6 µM) | 8 (≈ 18.3 µM) | > 64 | 16 (≈ 36.6 µM) | > 64 |  |  |  |  |  |  |  |  | NCC1OC(OC2C(N)CC(N)C(OC3OCC(O)C(O)C3N)C2O)C(N)CC1O (centres undefined) |  | 
> 64 | > 64 | > 64 | > 64 | > 64 | > 64 | > 64 |  |  |  |  |  |  | CC1OC(OC2C(N)CC(N)C(OC3OC(CN)C(O)CC3N)C2O)C(O)C(O)C1O (centres undefined) |  | 
 |  |  |  |  |  |  | 2 (≈ 4.57 µM) | 2 (≈ 4.57 µM) | 2 (≈ 4.57 µM) |  |  |  | NCC1OC(OC2C(N)CC(N)C(OC3OCC(O)C(N)C3O)C2O)C(N)CC1O (stereo in doubt; 8u) |  | 
 |  | > 64 |  | > 64 |  |  | 32 (≈ 73.1 µM) | >64 | >64 |  |  |  | NCC1OC(OC2C(N)CC(N)C(OC3OCC(O)C(N)C3O)C2O)C(N)CC1O (stereo in doubt; 8v) |  | 
 |  |  |  |  |  |  | 1 (≈ 2.14 µM) |  | 2 (≈ 4.29 µM) | 64 (≈ 137 µM) | 1 (≈ 2.14 µM) | 2 (≈ 4.29 µM) | NCC1OC(OC2C(N)CC(N)C(OC3OC(CO)C(N)C(N)C3O)C2O)C(N)CC1O (stereo in doubt; form 2) |  | 
